This is an account of results in patent publication US20070148258A1, “Dialysates and methods and systems related thereto” (priority 2003, published 2007).

Read-outs that look alike come from different tables or passages of the source.

One series has as its system normal aortas. Kind of series: Calcification of normal aortas cultured in high-PO4 medium with added enzymes. The note with it: enzyme added to culture in DMEM with 3.8 mM PO4 (inorganic pyrophosphatase 12-20 units/ml, 9 days). It is filed as cell-based, rat.
For series [1] the following is noted: human, in vivo. The method, then: To determine whether PPi metabolism is altered in hemodialysis patients, plasma levels and dialytic clearance of PPi were measured in stable hemodialysis patients. Predialysis plasma samples were obtained from 15 patients in an outpatient dialysis unit and from 23 inpatients. The inpatients were clinically stable and were admitted for transplant evaluation or for dialysis access problems.

For series [2] the following is noted: 4 L PPi in physiologic saline, 400 ml/min, dialysate without calcium 800 ml/min, 2.1 m^2 cellulose acetate membrane. On the procedure: FIG. 2 is an exemplary graph illustrating the results of in vitro dialysis of pyrophosphate. […] The concentration of pyrophosphate was measured at the times indicated. The line represents a single exponential fit.
(§1) Several studies were undertaken to determine the extent of PPi removal with dialysis. […] In 17 patients, some of whom were included in the predialysis data, plasma PPi concentration was measured before and after dialysis (FIG. 3).

For series [3] the following is noted: human, in vivo. The method, then:
Samples were drawn immediately before and immediately after dialysis from the predialyzer tubing. The lines to the left and right indicate the mean values before and after dialysis respectively.
as §1
Dialysate was collected during 4 treatments in 4 different patients order to measure the total amount of PPi removed.
This is another data set of the same source.

In a further series the test system is injured aortas. The method, then:
Injured aortas were incubated for 6 days in DMEM containing 3.8 mM PO4^−3 and varying concentrations of pyrophosphate. Results are means of at least 4 aortic rings.

The next series has as its system aortic cultures. The note with it: based on rate of hydrolysis of [32P]pyrophosphate.

Turning to Alkaline phosphatase, the “Effect on calcification of normal aortas” value in the series on normal aortas is given as “induced calcification”.

Consider `O=P(O)(O)OP(=O)(O)O` [pyrophosphate], for which, in series [1], the “Mean plasma [PPi] lower in hemodialysis patients than in normal subjects” value was 31%. Further, the “In vitro dialyzer clearance of PPi” value in series [2] came to 36%. Besides, the “Decrease of plasma PPi concentration after dialysis, range” value in series [3] was 4-59%. Moreover, in the series with injured aortas (2.5 M pyrophosphate, 6 days in DMEM with 3.8 mM PO4), the “Inhibition of calcification in injured aortas” value was “no inhibition”. Also, the “Concentrations at which inhibition of vascular calcification occurs in vitro” value in the series on injured aortas (concentrations normally present in human plasma) was in the range of 3 to 5 µM. In addition, the “Concentration that maximally inhibited calcification in injured aortas” value in the series with injured aortas (cultured rat aortas) is listed as “approximately 3 μM”. Further, the “Estimated pyrophosphate concentration 3 days after adding” value in the series with aortic cultures (5 μM added) was 18 µM; in the series on aortic cultures (10 μM added), 3.1 µM; in the series on aortic cultures (30 μM added), 7.9 µM.
